SMILES strings stand for the structures.

6×His-CRBN-DDB1 protein, sequence (Q96SW2 whole entry): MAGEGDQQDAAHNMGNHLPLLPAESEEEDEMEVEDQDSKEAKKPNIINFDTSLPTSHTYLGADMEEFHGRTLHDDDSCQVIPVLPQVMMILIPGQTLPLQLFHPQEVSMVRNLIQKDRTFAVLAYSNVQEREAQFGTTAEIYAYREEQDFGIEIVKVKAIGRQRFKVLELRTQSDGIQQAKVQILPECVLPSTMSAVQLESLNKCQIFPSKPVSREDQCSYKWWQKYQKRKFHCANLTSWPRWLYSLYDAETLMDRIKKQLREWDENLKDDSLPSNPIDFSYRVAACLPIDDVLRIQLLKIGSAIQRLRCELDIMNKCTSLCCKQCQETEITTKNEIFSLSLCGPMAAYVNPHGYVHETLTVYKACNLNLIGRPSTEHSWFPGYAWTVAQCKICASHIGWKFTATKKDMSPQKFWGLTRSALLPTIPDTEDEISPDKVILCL
6×His-CRBN-DDB1 protein, sequence (Q16531 whole entry partner): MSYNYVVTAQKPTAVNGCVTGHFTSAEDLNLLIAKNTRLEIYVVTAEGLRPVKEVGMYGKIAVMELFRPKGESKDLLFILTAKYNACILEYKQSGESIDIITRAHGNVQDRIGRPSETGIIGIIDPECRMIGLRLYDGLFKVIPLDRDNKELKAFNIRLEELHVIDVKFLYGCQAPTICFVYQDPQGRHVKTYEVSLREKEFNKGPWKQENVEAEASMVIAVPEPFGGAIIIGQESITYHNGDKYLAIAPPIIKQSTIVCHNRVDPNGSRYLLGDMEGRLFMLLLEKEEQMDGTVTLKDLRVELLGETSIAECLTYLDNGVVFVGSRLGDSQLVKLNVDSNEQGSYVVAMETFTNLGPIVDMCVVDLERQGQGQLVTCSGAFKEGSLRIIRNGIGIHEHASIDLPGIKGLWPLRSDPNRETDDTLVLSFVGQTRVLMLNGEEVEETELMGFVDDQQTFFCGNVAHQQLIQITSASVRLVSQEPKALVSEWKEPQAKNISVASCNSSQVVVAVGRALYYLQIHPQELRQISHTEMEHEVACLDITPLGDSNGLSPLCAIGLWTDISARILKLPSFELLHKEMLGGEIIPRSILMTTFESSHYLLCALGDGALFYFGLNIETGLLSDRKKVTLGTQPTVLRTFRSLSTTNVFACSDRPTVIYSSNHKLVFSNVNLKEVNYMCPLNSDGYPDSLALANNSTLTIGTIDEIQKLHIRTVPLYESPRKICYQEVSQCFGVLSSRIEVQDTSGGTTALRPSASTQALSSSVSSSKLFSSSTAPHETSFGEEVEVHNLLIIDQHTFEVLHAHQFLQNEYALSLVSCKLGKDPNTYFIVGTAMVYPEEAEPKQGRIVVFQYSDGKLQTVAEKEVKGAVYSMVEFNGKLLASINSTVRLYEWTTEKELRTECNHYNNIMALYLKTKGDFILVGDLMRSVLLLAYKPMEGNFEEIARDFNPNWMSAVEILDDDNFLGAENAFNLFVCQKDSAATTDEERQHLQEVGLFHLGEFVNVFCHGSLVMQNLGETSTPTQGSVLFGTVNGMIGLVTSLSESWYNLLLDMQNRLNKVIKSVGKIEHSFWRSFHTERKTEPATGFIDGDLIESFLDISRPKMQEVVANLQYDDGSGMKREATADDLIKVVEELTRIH

The target in the assay is 6×His-CRBN-DDB1 protein (Homo sapiens (Human), UniProt Q96SW2). Description: CRBN Fluorescence Polarization Assay. It counts as binding. The following applies: competitive fluorescence polarization; Cy5-O-Len probe 30 nM, 6×His-CRBN-DDB1 200 nM; 1 hour at room temperature; mean of three independent determinations; read-out: CRBN FP (IC50). The procedure:
In this competitive fluorescent polarization assay Cy5 conjugated lenalidomide analog (Cy5-O-Len)^13 was used as a fluorescent probe. 6×His-CRBN-DDB1 protein (200 nM) and Cy5-O-Len probe (30 nM) were combined in 20 mM HEPES pH 7, 150 mM NaCl, 0.005% Tween-20 assay buffer. 20 μL of this assay cocktail was dispensed into wells of Corning 3821 black 384-well plates. Compounds were transferred to the assay plate from a dose-response plate using a Pintool on a Biomek FXP Laboratory Automation Workstation (Beckman Coulter). The plates were incubated in the dark for 1 hour at room temperature and then read on an Envision plate reader (PerkinElmer, Massachusetts, USA). IC50 values were determined using a proprietary software RISE (Robust Investigation of Screening Experiments), developed in house on the Pipeline Pilot platform (Biovia, v. 17.2.0). Data represent the mean of three independent determinations.
Cereblon binding activity was determined as described herein above, and the results are provided below in Table 2 for representative disclosed compounds. Compound number (“Cmpd No.”) refers to the compound number (and associated compound information such as structure, name, etc.) as provided in Table 1. In Table 2 below: cereblon binding IC50 values are categorized as follows: “A” represents IC50 value<1 μM, “B” represents IC50 value between 1 and 10 μM, and “C” represents IC50 value>10 μM.
On the technique in general: Fluorescence polarisation rises when a labelled molecule tumbles more slowly, as on binding a larger partner.
What is called IC50 is the concentration at which inhibition is half-maximal. Consider `COc1cc(F)cc(C(=O)Nc2ccc3c(c2)CN(C2CCC(=O)NC2=O)C3=O)c1` (stereo not drawn) [Compound 59, N-(2-(2,6-dioxopiperidin-3-yl)-1-oxoisoindolin-5-yl)-3-fluoro-5-methoxybenzamide], for which the IC50 is 1 to 10 µM. For `O=C1CCC(N2Cc3cc(NC(=O)c4cccnc4)ccc3C2=O)C(=O)N1` (stereo not drawn) [Compound 6, N-(2-(2,6-dioxopiperidin-3-yl)-1-oxoisoindolin-5-yl)nicotinamide] the value was 1 to 10 µM; for `O=C1CCC(N2Cc3cc(NC(=O)Cc4ccc(O)cc4)ccc3C2=O)C(=O)N1` (stereo not drawn) [Compound 24, N-(2-(2,6-dioxopiperidin-3-yl)-1-oxoisoindolin-5-yl)-2-(4-hydroxyphenyl)acetamide], < 1 µM. With `Cc1cccc(C(=O)Nc2ccc3c(c2)CN(C2CCC(=O)NC2=O)C3=O)c1Cl` (stereo not drawn) [Compound 57, 2-chloro-N-(2-(2,6-dioxopiperidin-3-yl)-1-oxoisoindolin-5-yl)-3-methylbenzamide], the IC50 was in the range of 1 to 10 µM.

Take `Cc1ccc(C(=O)Nc2ccc3c(c2)CN(C2CCC(=O)NC2=O)C3=O)nc1` (stereo not drawn) [Compound 36, N-(2-(2,6-dioxopiperidin-3-yl)-1-oxoisoindolin-5-yl)-5-methylpicolinamide]: the IC50 is < 1 µM. The same measure for `CC(C)c1ccccc1C(=O)Nc1ccc2c(c1)CN(C1CCC(=O)NC1=O)C2=O` (stereo not drawn) [Compound 42, N-(2-(2,6-dioxopiperidin-3-yl)-1-oxoisoindolin-5-yl)-2-isopropylbenzamide]: 1 to 10 µM; for `O=C1CCC(N2Cc3cc(C(=O)Nc4ccc(F)cc4)ccc3C2=O)C(=O)N1` (stereo not drawn) [Compound 16, 2-(2,6-dioxopiperidin-3-yl)-N-(4-fluorophenyl)-1-oxoisoindoline-5-carboxamide]: 1 to 10 µM.

With `Cc1ccc2c(Nc3ccc4c(c3)CN(C3CCC(=O)NC3=O)C4=O)noc2c1` (stereo not drawn) [Compound 19, 3-(5-((6-methylbenzo[d]isoxazol-3-yl)amino)-1-oxoisoindolin-2-yl)piperidine-2,6-dione], the IC50 is < 1 µM. Consider `CN(C)c1cccc(C(=O)Nc2ccc3c(c2)CN(C2CCC(=O)NC2=O)C3=O)c1` (stereo not drawn) [Compound 60, 3-(dimethylamino)-N-(2-(2,6-dioxopiperidin-3-yl)-1-oxoisoindolin-5-yl)benzamide], for which the IC50 is 1 to 10 µM.

As for `COc1ccc(C(=O)Nc2ccc3c(c2)CN(C2CCC(=O)NC2=O)C3=O)cc1` (stereo not drawn) [Compound 40, N-(2-(2,6-dioxopiperidin-3-yl)-1-oxoisoindolin-5-yl)-4-methoxybenzamide], the IC50 was < 1 µM.

In the case of `O=C1CCC(N2Cc3cc(NC(=O)c4ccc5nc[nH]c5c4)ccc3C2=O)C(=O)N1` (stereo not drawn) [Compound 27, N-(2-(2,6-dioxopiperidin-3-yl)-1-oxoisoindolin-5-yl)-1H-benzo[d]imidazole-6-carboxamide], the IC50 was < 1 µM. `O=C1CCC(N2Cc3cc(NC(=O)c4ccc(Cl)cc4)ccc3C2=O)C(=O)N1` (stereo not drawn) [Compound 13, 4-chloro-N-(2-(2,6-dioxopiperidin-3-yl)-1-oxoisoindolin-5-yl)benzamide]: the IC50 is < 1 µM. The same measure for `CC(C)(O)c1ccc(C(=O)Nc2ccc3c(c2)CN(C2CCC(=O)NC2=O)C3=O)cc1` (stereo not drawn) [Compound 22, N-(2-(2,6-dioxopiperidin-3-yl)-1-oxoisoindolin-5-yl)-4-(2-hydroxypropan-2-yl)benzamide]: 1 to 10 µM; for `COc1cccc(C(=O)Nc2ccc3c(c2)CN(C2CCC(=O)NC2=O)C3=O)c1` (stereo not drawn) [Compound 11, N-(2-(2,6-dioxopiperidin-3-yl)-1-oxoisoindolin-5-yl)-3-methoxybenzamide]: < 1 µM; for `COCCOc1cccc(C(=O)Nc2ccc3c(c2)CN(C2CCC(=O)NC2=O)C3=O)c1` (stereo not drawn) [Compound 53, N-(2-(2,6-dioxopiperidin-3-yl)-1-oxoisoindolin-5-yl)-3-(2-methoxyethoxy)benzamide]: 1 to 10 µM. With `O=C1CCC(N2Cc3cc(NC(=O)c4ccc(F)cc4)ccc3C2=O)C(=O)N1` (stereo not drawn) [Compound 5, N-(2-(2,6-dioxopiperidin-3-yl)-1-oxoisoindolin-5-yl)-4-fluorobenzamide], the IC50 is 1 to 10 µM. Consider `CN(C(=O)c1ccccc1)c1ccc2c(c1)CN(C1CCC(=O)NC1=O)C2=O` (stereo not drawn) [Compound 18, N-(2-(2,6-dioxopiperidin-3-yl)-1-oxoisoindolin-5-yl)-N-methylbenzamide], for which the IC50 was 1 to 10 µM.

Take `Cc1ccc(C(=O)Nc2ccc3c(c2)CN(C2CCC(=O)NC2=O)C3=O)cc1` (stereo not drawn) [Compound 2, N-(2-(2,6-dioxopiperidin-3-yl)-1-oxoisoindolin-5-yl)-4-methylbenzamide]: the IC50 is < 1 µM. The same measure for `O=C1CCC(N2Cc3cc(Nc4nc5ccccc5s4)ccc3C2=O)C(=O)N1` (stereo not drawn) [Compound 63, 3-(5-(benzo[d]thiazol-2-ylamino)-1-oxoisoindolin-2-yl)piperidine-2,6-dione]: 1 to 10 µM; for `O=C1CCC(N2Cc3cc(NC(=O)c4cccc(OC(F)(F)F)c4)ccc3C2=O)C(=O)N1` (stereo not drawn) [Compound 44, N-(2-(2,6-dioxopiperidin-3-yl)-1-oxoisoindolin-5-yl)-3-(trifluoromethoxy)benzamide]: 1 to 10 µM; for `N#Cc1ccc(C(=O)Nc2ccc3c(c2)CN(C2CCC(=O)NC2=O)C3=O)cc1` (stereo not drawn) [Compound 52, 4-cyano-N-(2-(2,6-dioxopiperidin-3-yl)-1-oxoisoindolin-5-yl)benzamide]: 1 to 10 µM. `Cc1cccc(C(=O)Nc2ccc3c(c2)CN(C2CCC(=O)NC2=O)C3=O)c1` (stereo not drawn) [Compound 3, N-(2-(2,6-dioxopiperidin-3-yl)-1-oxoisoindolin-5-yl)-3-methylbenzamide]: the concentration for half-maximal inhibition (IC50) lay within 1 to 10 µM. Regarding `O=C1CCC(N2Cc3cc(NC(=O)c4ccc(C(F)(F)F)cc4)ccc3C2=O)C(=O)N1` (stereo not drawn) [Compound 15, N-(2-(2,6-dioxopiperidin-3-yl)-1-oxoisoindolin-5-yl)-4-(trifluoromethyl)benzamide], the IC50 was < 1 µM. For the compound `Cc1ccc(C(=O)Nc2ccc3c(c2)C(=O)N(C2CCC(=O)NC2=O)C3=O)cc1` (stereo not drawn) [Compound 1, N-(2-(2,6-dioxopiperidin-3-yl)-1,3-dioxolsoindolin-5-yl)-4-methylbenzamide], the IC50 was in the range of 1 to 10 µM. For `O=C1CCC(N2Cc3cc(NC(=O)c4[nH]c5ccccc5c4Cl)ccc3C2=O)C(=O)N1` (stereo not drawn) [Compound 26, 3-chloro-N-(2-(2,6-dioxopiperidin-3-yl)-1-oxoisoindolin-5-yl)-1H-indole-2-carboxamide] the value was > 10 µM. For the compound `Cc1ccc(C(=O)Nc2ccc3c(c2)CN(C2CCC(=O)NC2=O)C3=O)cn1` (stereo not drawn) [Compound 20, N-(2-(2,6-dioxopiperidin-3-yl)-1-oxoisoindolin-5-yl)-6-methylnicotinamide], the IC50 was 1 to 10 µM. The same measure for `O=C1CCC(N2Cc3cc(NC(=O)c4ccccc4C4CC4)ccc3C2=O)C(=O)N1` (stereo not drawn) [Compound 49, 2-cyclopropyl-N-(2-(2,6-dioxopiperidin-3-yl)-1-oxoisoindolin-5-yl)benzamide]: 1 to 10 µM. Take `O=C1CCC(N2Cc3cc(NC(=O)c4ccc(-c5ccn[nH]5)cc4)ccc3C2=O)C(=O)N1` (stereo not drawn) [Compound 21, N-(2-(2,6-dioxopiperidin-3-yl)-1-oxoisoindolin-5-yl)-4-(1H-pyrazol-5-yl)benzamide]: the IC50 was in the range of 1 to 10 µM. `Cc1cc(F)cc(C(=O)Nc2ccc3c(c2)CN(C2CCC(=O)NC2=O)C3=O)c1` (stereo not drawn) [Compound 55]: the IC50 fell in the range of 1 to 10 µM. For `N#Cc1cccc(C(=O)Nc2ccc3c(c2)CN(C2CCC(=O)NC2=O)C3=O)c1` (stereo not drawn) [Compound 9, 3-cyano-N-(2-(2,6-dioxopiperidin-3-yl)-1-oxoisoindolin-5-yl)benzamide] the value was < 1 µM; for `Cc1ccccc1C(=O)Nc1ccc2c(c1)CN(C1CCC(=O)NC1=O)C2=O` (stereo not drawn) [Compound 33, N-(2-(2,6-dioxopiperidin-3-yl)-1-oxoisoindolin-5-yl)-2-methylbenzamide], 1 to 10 µM; for `O=C1CCC(N2Cc3cc(NC(=O)c4ccccc4OC(F)(F)F)ccc3C2=O)C(=O)N1` (stereo not drawn) [Compound 45, N-(2-(2,6-dioxopiperidin-3-yl)-1-oxoisoindolin-5-yl)-2-(trifluoromethoxy)benzamide], 1 to 10 µM. For `O=C1CCC(N2Cc3cc(NC(=O)c4ccc(CN5CCOCC5)cc4)ccc3C2=O)C(=O)N1` (stereo not drawn) [Compound 32, N-(2-(2,6-dioxopiperidin-3-yl)-1-oxoisoindolin-5-yl)-4-(morpholinomethyl)benzamide] the value was 1 to 10 µM; for `O=C1CCC(N2Cc3cc(NC(=O)c4cccc(F)c4)ccc3C2=O)C(=O)N1` (stereo not drawn) [Compound 8, N-(2-(2,6-dioxopiperidin-3-yl)-1-oxoisoindolin-5-yl)-3-fluorobenzamide], 1 to 10 µM.

For the compound `O=C1CCC(N2Cc3cc(NC(=O)c4ccc(Cl)cc4)ccc3C2=O)C(=O)N1` (stereo not drawn) [Compound 14, 4-chloro-N-(2-(2,6-dioxopiperidin-3-yl)-1-oxoisoindolin-5-yl)benzamide], the 50% inhibitory concentration (IC50) lay within 1 to 10 µM. With `Cc1cc(C(=O)Nc2ccc3c(c2)CN(C2CCC(=O)NC2=O)C3=O)ccc1F` (stereo not drawn) [Compound 56, N-(2-(2,6-dioxopiperidin-3-yl)-1-oxoisoindolin-5-yl)-4-fluoro-3-methylbenzamide], the half-inhibitory concentration (IC50) lay in the range of 1 to 10 µM.

The record behind these values is patent US20260014133A1, “SUBSTITUTED 3-(l-OXOISOINDOLIN-2-YL)PIPERIDINE-2,6-DIONE/2-(2,6-DIOXOPIPERIDIN-3-YL)ISOINDOLINE-l,3-DIONE ANALOGS AS MODULATORS OF CEREBLON PROTEIN” (St. Jude's Chidren's Research Hospital, Inc., priority 2022, published 2026).
